According to PMC5278571, “Optimal doses of caspofungin during continuous venovenous hemodiafiltration in critically ill patients” (Critical Care, 2017):
Where two headings read alike, the source gives them in different places.

Test: Pharmacokinetics of caspofungin during continuous venovenous hemodiafiltration (CVVHD)
Format: in vivo, human
Conditions: for Vd / t½ / AUC0-24 Arterial / AUC0-24 Difference venous to arterial (%) / AUC0-24 Venous / Cl / Cmax / Ctrough: steady state, CVVHD; for t½: elimination
Description: The aim of the present study was to describe the pharmacokinetics of caspofungin in 12 critically ill adult patients with suspected or proven invasive candidiasis who were receiving continuous venovenous hemodiafiltration (CVVHD).
CVVHD was performed using a polysulfone hemofilter (Fresenius, Germany). Caspofungin was administered at usual doses. Pre-filter and post-filter blood, ultradiafiltrate, and urine samples were collected at steady state on day 3 or later, before the dose infusion started, and 0.5, 1, 1.5, 2, 4, 6, 8, and 24 h after the infusion ended.

## CC[C@H](C)C[C@H](C)CCCCCCCCC(=O)N[C@H]1C[C@@H](O)[C@@H](NCCN)NC(=O)[C@@H]2[C@@H](O)CCN2C(=O)[C@H]([C@H](O)CCN)NC(=O)[C@H]([C@H](O)[C@@H](O)c2ccc(O)cc2)NC(=O)[C@@H]2C[C@@H](O)CN2C(=O)[C@H]([C@@H](C)O)NC1=O [caspofungin]
human, in vivo, iv, Mean ± SD of 12 patients, SD, read-out: Vd
  Vd: 16.4 ± 5.4 L
N = 12 patients, rules out adsorption to the filter
  Mean concentration in the post-filter line compared with the pre-filter line: slightly higher
Patient 1
  t½: 27.4 h
  AUC0-24 Arterial: 140.0 µg·h/mL
  AUC0-24 Difference venous to arterial (%): 29%
  AUC0-24 Venous: 180.0 µg·h/mL
  Cl: 0.356 L/h
  Cmax: 12500 ng/mL
  Ctrough: 3470 ng/mL
  Vd: 14.1 L
Patient 2
  t½: 21.0 h
  AUC0-24 Arterial: 88.3 µg·h/mL
  AUC0-24 Difference venous to arterial (%): 20%
  AUC0-24 Venous: 106.0 µg·h/mL
  Cl: 0.567 L/h
  Cmax: 7800 ng/mL
  Ctrough: 2100 ng/mL
  Vd: 17.1 L
Patient 3
  t½: 18.8 h
  AUC0-24 Arterial: 124.0 µg·h/mL
  AUC0-24 Difference venous to arterial (%): 23%
  AUC0-24 Venous: 152.0 µg·h/mL
  Cl: 0.402 L/h
  Cmax: 8800 ng/mL
  Ctrough: 3100 ng/mL
  Vd: 10.9 L
Patient 4
  t½: 24.3 h
  AUC0-24 Arterial: 65.4 µg·h/mL
  AUC0-24 Difference venous to arterial (%): 18%
  AUC0-24 Venous: 77.4 µg·h/mL
  Cl: 0.765 L/h
  Cmax: 6900 ng/mL
  Ctrough: 1300 ng/mL
  Vd: 26.8 L
Patient 5
  t½: 16.5 h
  AUC0-24 Arterial: 68.0 µg·h/mL
  AUC0-24 Difference venous to arterial (%): 32%
  AUC0-24 Venous: 90.0 µg·h/mL
  Cl: 0.735 L/h
  Cmax: 4800 ng/mL
  Ctrough: 1500 ng/mL
  Vd: 17.5 L
Patient 6
  t½: 13.8 h
  AUC0-24 Arterial: 102.0 µg·h/mL
  AUC0-24 Difference venous to arterial (%): 5%
  AUC0-24 Venous: 107.0 µg·h/mL
  Cl: 0.683 L/h
  Cmax: 10700 ng/mL
  Ctrough: 2500 ng/mL
  Vd: 13.6 L
Patient 7
  t½: 13.6 h
  AUC0-24 Arterial: 65.6 µg·h/mL
  AUC0-24 Difference venous to arterial (%): 20%
  AUC0-24 Venous: 78.8 µg·h/mL
  Cl: 0.762 L/h
  Cmax: 8300 ng/mL
  Ctrough: 1600 ng/mL
  Vd: 15.0 L
Patient 8
  t½: 19.3 h
  AUC0-24 Arterial: 100.0 µg·h/mL
  AUC0-24 Difference venous to arterial (%): 13%
  AUC0-24 Venous: 113.0 µg·h/mL
  Cl: 0.499 L/h
  Cmax: 9500 ng/mL
  Ctrough: 2700 ng/mL
  Vd: 13.9 L
Patient 9
  t½: 14.3 h
  AUC0-24 Arterial: 102.0 µg·h/mL
  AUC0-24 Difference venous to arterial (%): 25%
  AUC0-24 Venous: 127.0 µg·h/mL
  Cl: 0.685 L/h
  Cmax: 9200 ng/mL
  Ctrough: 2300 ng/mL
  Vd: 14.1 L
Patient 10
  t½: 15.0 h
  AUC0-24 Arterial: 121.0 µg·h/mL
  AUC0-24 Difference venous to arterial (%): 17%
  AUC0-24 Venous: 142.0 µg·h/mL
  Cl: 0.578 L/h
  Cmax: 12600 ng/mL
  Ctrough: 2900 ng/mL
  Vd: 12.5 L
Patient 11
  t½: 26.2 h
  AUC0-24 Arterial: 190.0 µg·h/mL
  AUC0-24 Difference venous to arterial (%): 18%
  AUC0-24 Venous: 224.0 µg·h/mL
  Cl: 0.368 L/h
  Cmax: 11500 ng/mL
  Ctrough: 4000 ng/mL
  Vd: 13.9 L
Patient 12
  t½: 16.5 h
  AUC0-24 Arterial: 60.1 µg·h/mL
  AUC0-24 Difference venous to arterial (%): 24%
  AUC0-24 Venous: 74.5 µg·h/mL
  Cl: 1.165 L/h
  Cmax: 8500 ng/mL
  Ctrough: 1900 ng/mL
  Vd: 27.7 L
ultradiafiltrate, CVVHD with polysulfone hemofilter, HPLC
  Caspofungin in ultradiafiltrate samples: negligible
urine, patients on CVVHD, HPLC
  Caspofungin in urine samples: negligible
